Among the data in US20260001914A1, “MACROCYCLIC PEPTIDES TARGETING KRAS” (Merck Sharp & Dohme LLC, priority 2022, published 2026) are EC50 values, retold here.

*1 amine or outer side, *2 acyl side, *3 side chain or, on linkers, in order; H or OH if unused. Where a SMILES comes first, the peptide text is derived from it. Bridges are numbered along the chain shown (N, C = ends). [ ]: non-standard residue; d: D form. Phe(4-guanidino) = N=C(N)Nc1ccc(C[C@H](N)C(=O)O)cc1; Ala(pyrimidin-5-yl) = N[C@@H](Cc1cncnc1)C(=O)O; X8 = CN([C@@H](Cc1ccc(F)nc1)C(=O)[*:2])[*:1]; X43 = CN([C@@H](Cc1cnccc1F)C(=O)[*:2])[*:1]; X25 = O=C([C@H](Cc1ccc(F)nc1)N[*:1])[*:2]; X3 = CN([C@@H](Cc1cncnc1)C(=O)[*:2])[*:1]; Lys(N3) = [N-]=[N+]=NCCCC[C@H](N)C(=O)O; NMeAha = CN[C@@H](CCN=[N+]=[N-])C(=O)O; Nle(5,5-F2) = CC(F)(F)CC[C@H](N)C(=O)O; X40 = CC(C)(F)C[C@H](N[*:1])C(=O)[*:2]; X21 = O=C([C@@H]1C[C@H]1CN[*:1])[*:2]; Ala(cPent) = N[C@@H](CC1CCCC1)C(=O)O; Phe(2-F) = N[C@@H](Cc1ccccc1F)C(=O)O; NMe3Pal = CN[C@@H](Cc1cccnc1)C(=O)O; X1 = O=C(C12CC(CN[*:1])(C1)C2)[*:2]; NMeOrn(Me) = CNCCC[C@H](NC)C(=O)O; NMeR = CN[C@@H](CCCNC(=N)N)C(=O)O; Ala(cPr) = N[C@@H](CC1CC1)C(=O)O; NMeF = CN[C@@H](Cc1ccccc1)C(=O)O; PhLac = O=C(O)[C@@H](O)Cc1ccccc1; X4 = O=C([C@H](CCCF)N[*:1])[*:2]; 3Pal = N[C@@H](Cc1cccnc1)C(=O)O; Ahp(2) = CCCCC[C@H](N)C(=O)O; Cba = N[C@@H](CC1CCC1)C(=O)O; hLeu = CC(C)CC[C@H](N)C(=O)O; αMeC = C[C@](N)(CS)C(=O)O; NMeA = CN[C@@H](C)C(=O)O; Nle = CCCC[C@H](N)C(=O)O Where only a bound is given, the exact number is not on record here.

The target in the assay is phosphorylation levels of ERK1/2 in AsPC-1 (homozygous KRAS-G12D) cells (Homo sapiens, UniProt P01116, G12D). In words: Cellular phospho-ERK assay in AsPC-1 cells (Alpha Screen), assay medium without fetal bovine serum.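 Also: signal taken as phospho-ERK over total ERK per well, both detected in one multiplex bead assay, EC50 from four-parameter logistic fit of dose-response curves.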 In kind it is cell-based. The following applies: phospho-ERK AlphaScreen, 18 h. (Bead proximity is the source of the signal in Alpha formats.)
phosphorylation levels of ERK1/2 in AsPC-1 (homozygous KRAS-G12D) cells, sequence (P01116 1-186 G12D): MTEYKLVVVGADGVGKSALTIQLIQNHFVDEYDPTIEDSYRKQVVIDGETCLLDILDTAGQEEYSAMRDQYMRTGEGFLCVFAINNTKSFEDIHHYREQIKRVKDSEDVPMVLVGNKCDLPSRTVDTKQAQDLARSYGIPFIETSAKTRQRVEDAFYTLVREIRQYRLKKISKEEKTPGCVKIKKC
By EC50 is commonly meant the concentration that produces a half-maximal response. Read a low EC50 as an effect from little substance. Take `CCCC[C@@H]1NC(=O)[C@H](Cc2ccc(F)nc2)NC(=O)[C@H](C)N(C)C(=O)[C@H](Cc2ccccc2)OC(=O)C23CC(CNC(=O)[C@H](Cc4cccnc4)N(C)C(=O)[C@H](CCCC)NC(=O)[C@H](Cc4ccccc4F)NC1=O)(C2)C3` [compound 235, cyclo(FLac-NMeA-4F3Pal-Nle-Phe2F-Nle-NMe3Pal-amBCP)] (cyclo([NMe3Pal][X1][PhLac][NMeA][X25][Nle][Phe(2-F)][Nle])): a half-maximal effect (EC50) was put at 11.8 µM. The value for `C[C@H]1C(=O)N[C@@H](Cc2cncnc2)C(=O)N[C@@H](CC2CC2)C(=O)N[C@@H](Cc2ccccc2F)C(=O)N[C@@H](CCC(C)(F)F)C(=O)N(C)[C@@H](Cc2ccccc2)C(=O)NCC23CC(C2)(C3)C(=O)O[C@@H](Cc2ccccc2)C(=O)N1C` [compound 276, cyclo(FLac-NMeA-PyrimAla-cPrA-Phe2F-Nle3F2-NMeF-amBCP)] (cyclo([Ala(cPr)][Phe(2-F)][Nle(5,5-F2)][NMeF][X1][PhLac][NMeA][Ala(pyrimidin-5-yl)])) was 0.666 µM; that for `CCCC[C@@H]1NC(=O)[C@H](Cc2cccnc2)NC(=O)[C@H](CCN=[N+]=[N-])N(C)C(=O)[C@H](Cc2ccccc2)OC(=O)C23CC(CNC(=O)[C@H](Cc4cccnc4)N(C)C(=O)[C@H](CCCC)NC(=O)[C@H](Cc4ccccc4F)NC1=O)(C2)C3` [compound 249, cyclo(FLac-NMeDabN3-3Pal-Nle-Phe2F-Nle-NMe3Pal-amBCP)] (cyclo([3Pal][Nle][Phe(2-F)][Nle][NMe3Pal][X1][PhLac][NMeAha])) was 3.95 µM; that for `CC(C)CC[C@@H]1NC(=O)[C@H](Cc2ccccc2F)NC(=O)[C@H](CC2CC2)NC(=O)[C@H](Cc2cncnc2)NC(=O)[C@H](C)N(C)C(=O)[C@H](Cc2ccccc2)OC(=O)C23CC(CNC(=O)[C@H](Cc4cnccc4F)N(C)C1=O)(C2)C3` [compound 338, cyclo(FLac-NMeA-PyrimAla-cPrA-Phe2F-hL-NMe3Pal6F-amBCP)] (cyclo([Ala(cPr)][Phe(2-F)][hLeu][X43][X1][PhLac][NMeA][Ala(pyrimidin-5-yl)])) was 1.86 µM. For `CCCCC[C@@H]1NC(=O)[C@H](Cc2ccc(OC)cc2)NC(=O)[C@H](CC2CCC2)NC(=O)[C@H](Cc2ccc(NC(=N)N)cc2)NC(=O)[C@H](CCCNC)N(C)C(=O)[C@H](Cc2ccccc2)NC(=O)CSC[C@@](C)(C(N)=O)NC(=O)[C@H](Cc2ccccc2)N(C)C1=O` [compound 385, cyclo(F-NMeOrnMe-Phe4Gn-cBuA-TyrOMe-Ahp-NMeF-aMeCl-ClAc)] ({CH2CO}-F[NMeOrn(Me)][Phe(4-guanidino)][Cba]Y(Me)[Ahp(2)][NMeF][αMeC]-NH2; thioether N-8) the value was greater than 50.8 µM; for `CCCC[C@@H]1NC(=O)[C@H](Cc2ccccc2F)NC(=O)[C@H](CCC(C)C)NC(=O)[C@H](Cc2cncnc2)NC(=O)[C@H](C)N(C)C(=O)[C@H](Cc2ccccc2)OC(=O)C23CC(CNC(=O)[C@H](Cc4cccnc4)N(C)C1=O)(C2)C3` [compound 127, cyclo(FLac-NMeA-PyrimAla-hL-Phe2F-Nle-NMe3Pal-amBCP)] (cyclo([NMe3Pal][X1][PhLac][NMeA][Ala(pyrimidin-5-yl)][hLeu][Phe(2-F)][Nle])), greater than 50.8 µM; for `CC(C)CC[C@@H]1NC(=O)[C@H](Cc2ccccc2F)NC(=O)[C@H](CC2CC2)NC(=O)[C@H](Cc2cncnc2)NC(=O)[C@H](C)N(C)C(=O)[C@H](Cc2ccccc2)OC(=O)C23CC(CNC(=O)[C@H](Cc4ccc(F)nc4)N(C)C1=O)(C2)C3` [compound 339, cyclo(FLac-NMeA-PyrimAla-cPrA-Phe2F-hL-NMe3Pal4F-amBCP)] (cyclo([Ala(cPr)][Phe(2-F)][hLeu][X8][X1][PhLac][NMeA][Ala(pyrimidin-5-yl)])), 1.65 µM. The value for `CCCCC[C@@H]1NC(=O)[C@H](Cc2ccc(OC)cc2)NC(=O)[C@H](CC2CCC2)NC(=O)[C@H](Cc2ccc(-c3cccnc3N)cc2)NC(=O)[C@H](CCCNC(=N)N)NC(=O)[C@H](Cc2ccccc2)NC(=O)CSC[C@@](C)(C(N)=O)NC(=O)[C@H](Cc2ccccc2)N(C)C1=O` [compound 390, cyclo(F-R-Phe43PyNH2-cBuA-TyrOMe-Ahp-NMeF-aMeCl-ClAc)] was greater than 50.8 µM; that for `CC(C)CC[C@@H]1NC(=O)[C@H](Cc2ccccc2F)NC(=O)[C@H](CC(C)(C)F)NC(=O)[C@H](Cc2cncnc2)NC(=O)[C@H](C)N(C)C(=O)[C@H](Cc2ccccc2)OC(=O)C23CC(CNC(=O)[C@H](Cc4ccccc4)N(C)C1=O)(C2)C3` [compound 136, cyclo(FLac-NMeA-PyrimAla-Leu3F-Phe2F-hL-NMeF-amBCP)] (cyclo([NMeA][Ala(pyrimidin-5-yl)][X40][Phe(2-F)][hLeu][NMeF][X1][PhLac])) was 7.73 µM; that for `CCCC[C@@H]1NC(=O)[C@H](Cc2cccnc2)NC(=O)[C@H](CCCNC(=N)N)N(C)C(=O)[C@H](Cc2ccccc2)NC(=O)[C@@H]2C[C@H]2CNC(=O)[C@H](Cc2ccccc2)N(C)C(=O)[C@H](CCCCN=[N+]=[N-])NC(=O)[C@H](Cc2ccc(OC)cc2)NC1=O` [compound 94, cyclo(F-NMeR-3Pal-Nle-TyrOMe-LysN3-NMeF-tamcPr)] (cyclo(F[NMeR][3Pal][Nle]Y(Me)[Lys(N3)][NMeF][X21])) was greater than 50.8 µM. Regarding `CC(C)CC[C@@H]1NC(=O)[C@H](Cc2ccccc2F)NC(=O)[C@H](CC2CCCC2)NC(=O)[C@H](Cc2cncnc2)NC(=O)[C@H](C)N(C)C(=O)[C@H](Cc2ccccc2)OC(=O)C23CC(CNC(=O)[C@H](Cc4ccccc4)N(C)C1=O)(C2)C3` [compound 135, cyclo(FLac-NMcA-PyrimAla-cPeA-Phe2F-hL-NMeF-amBCP)] (cyclo([Ala(cPent)][Phe(2-F)][hLeu][NMeF][X1][PhLac][NMeA][Ala(pyrimidin-5-yl)])), the EC50 is 0.285 µM. For `CC(C)CC[C@@H]1NC(=O)[C@H](Cc2ccccc2F)NC(=O)[C@H](CCCF)NC(=O)[C@H](Cc2cncnc2)NC(=O)[C@H](C)N(C)C(=O)[C@H](Cc2ccccc2)OC(=O)C23CC(CNC(=O)[C@H](Cc4ccccc4)N(C)C1=O)(C2)C3` [compound 133, cyclo(FLac-NMeA-PyrimAla-NvaF-Phe2F-hL-NMeF-amBCP)] (cyclo([NMeA][Ala(pyrimidin-5-yl)][X4][Phe(2-F)][hLeu][NMeF][X1][PhLac])) the value was 2.26 µM; for `CCCC[C@@H]1NC(=O)[C@H](Cc2cccnc2)NC(=O)[C@H](C)N(C)C(=O)[C@H](Cc2cccnc2)NC(=O)C23CC(CNC(=O)[C@H](Cc4cccnc4)N(C)C(=O)[C@H](CCCC)NC(=O)[C@H](Cc4ccccc4F)NC1=O)(C2)C3` [compound 163, cyclo(3Pal-NMeA-3Pal-Nle-Phe2F-Nle-NMe3Pal-amBCP)] (cyclo([3Pal][NMeA][3Pal][Nle][Phe(2-F)][Nle][NMe3Pal][X1])), greater than 50.8 µM; for `CC(C)CC[C@@H]1NC(=O)[C@H](Cc2ccccc2F)NC(=O)[C@H](CC2CCCC2)NC(=O)[C@H](Cc2cncnc2)NC(=O)[C@H](C)N(C)C(=O)[C@H](Cc2ccccc2)OC(=O)C23CC(CNC(=O)[C@H](Cc4cncnc4)N(C)C1=O)(C2)C3` [compound 335, cyclo(FLac-NMeA-PyrimAla-cPeA-Phe2F-hL-NMeAlaPyrim-amBCP)] (cyclo([Ala(cPent)][Phe(2-F)][hLeu][X3][X1][PhLac][NMeA][Ala(pyrimidin-5-yl)])), 5.27 µM.
